Columns and labels:
Caspase-3 = target: T1, Caspase-3 (Homo sapiens, UniProt P42574); test: Inhibition of caspase 3
T1 sequence (P42574 whole entry): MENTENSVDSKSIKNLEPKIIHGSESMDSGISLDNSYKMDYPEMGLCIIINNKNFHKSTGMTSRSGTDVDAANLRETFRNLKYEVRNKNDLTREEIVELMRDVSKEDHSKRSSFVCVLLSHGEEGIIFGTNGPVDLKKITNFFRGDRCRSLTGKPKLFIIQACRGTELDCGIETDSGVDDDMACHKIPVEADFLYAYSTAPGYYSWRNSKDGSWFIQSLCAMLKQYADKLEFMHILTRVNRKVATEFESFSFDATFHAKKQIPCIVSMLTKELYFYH

THP-1 = test: Inhibition of IL1-beta production in THP1 cells; assay type: functional, cell-based; conditions: Homo sapiens
Caspase-1 = target: T2, Caspase-1 (Homo sapiens, UniProt P29466); test: Inhibition of ICE
T2 sequence (P29466 whole entry): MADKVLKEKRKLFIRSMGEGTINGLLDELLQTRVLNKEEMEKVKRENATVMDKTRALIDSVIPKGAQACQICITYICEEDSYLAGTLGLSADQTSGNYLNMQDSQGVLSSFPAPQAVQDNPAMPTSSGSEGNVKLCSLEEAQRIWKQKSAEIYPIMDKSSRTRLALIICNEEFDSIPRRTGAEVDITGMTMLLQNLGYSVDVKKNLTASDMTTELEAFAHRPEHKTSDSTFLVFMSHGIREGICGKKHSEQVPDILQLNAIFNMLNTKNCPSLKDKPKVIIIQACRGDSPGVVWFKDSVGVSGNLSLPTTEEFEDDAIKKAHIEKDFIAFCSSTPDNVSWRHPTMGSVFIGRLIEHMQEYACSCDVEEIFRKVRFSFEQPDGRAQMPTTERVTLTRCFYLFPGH

Caspase-8 = Caspase-8 (Homo sapiens, UniProt Q14790); test: Inhibition of caspase 8
[1] = Cmax in Sprague-Dawley rat at 30 mg/kg, po; assay type: ADME, organism-based; design: dose 30 mg/kg, route oral; conditions: in vivo
[2] = (§1) AUC (0 to infinity) in Sprague-Dawley rat at 30 mg/kg, po; assay type: ADME, organism-based, Plasma; design: time infinity, dose 30 mg/kg, route oral; conditions: Sprague-Dawley, plasma
[3] = (§2) Bioavailability in Sprague-Dawley rat at 30 mg/kg, po; assay type: ADME, organism-based; conditions: Sprague-Dawley, in vivo
[4] = Half life in Sprague-Dawley rat at 30 mg/kg, po; assay type: ADME, organism-based; design: dose 30 mg/kg, route oral; conditions: in vivo
Rattus norvegicus [5] = test: as §1; assay type: ADME, organism-based, Plasma; design: time infinity, dose 30 mg/kg, route oral; conditions: in vivo
[6] = Half life in Sprague-Dawley rat at 30 mg/kg, iv; assay type: ADME, organism-based; design: dose 30 mg/kg, route intravenous; conditions: in vivo
Rattus norvegicus [7] = test: AUC (0 to infinity) in Sprague-Dawley rat at 30 mg/kg, iv; assay type: ADME, organism-based, Plasma; design: time infinity, dose 30 mg/kg, route intravenous; conditions: in vivo
Rattus norvegicus [8] = test: as §2; assay type: ADME, organism-based; conditions: in vivo
[9] = Cmax in Sprague-Dawley rat at 30 mg/kg, iv; assay type: ADME, organism-based; design: dose 30 mg/kg, route intravenous; conditions: in vivo

Chain of Caspase-8 (Q14790 217-374 limits assumed): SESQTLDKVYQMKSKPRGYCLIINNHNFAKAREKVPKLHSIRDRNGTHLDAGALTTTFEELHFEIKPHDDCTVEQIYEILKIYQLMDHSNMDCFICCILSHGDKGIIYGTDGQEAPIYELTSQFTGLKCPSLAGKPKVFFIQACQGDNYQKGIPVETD
Chain of Caspase-8 (Q14790 385-479 limits assumed): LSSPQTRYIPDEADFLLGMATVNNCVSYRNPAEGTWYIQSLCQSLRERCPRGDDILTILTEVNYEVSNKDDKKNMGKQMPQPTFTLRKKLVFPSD

Question: With `C[C@H](C(=O)N[C@H]1CC(=O)OC1O)N1CC=CC[C@H](NC(=O)c2ccc3ccccc3c2)C1=O` (some centres undefined) as the molecule, how does the IC50 (Caspase-3) read?
Answer: > 10 µM

Question: What about the IC50 (THP-1) of the same molecule?
Answer: 0.871 µM

Question: What about the IC50 (Caspase-1) of the same molecule?
Answer: 0.013 µM

Question: And the IC50 (Caspase-8)?
Answer: 0.537 µM

Question: Which results are given for `O=C(CN1CC(CNCc2ccccc2)=CC[C@H](NC(=O)c2ccc3ccccc3c2)C1=O)N[C@H]1CC(=O)OC1O` (some centres undefined)?
Answer: IC50 (Caspase-3): > 10 µM; IC50 (THP-1): 0.232 µM; IC50 (Caspase-1): 0.007 µM; IC50 (Caspase-8): 10 µM

Question: For `CCOC1OC(=O)C[C@@H]1NC(=O)CN1CC=CC[C@H](NC(=O)c2ccc3ccccc3c2)C1=O` (some centres undefined), which Cmax [1] is on record?
Answer: 9.36 µg/mL

Question: And the AUC(0-inf) [2]?
Answer: 21 µg·h/mL

Question: What about the bioavailability [3] of the same molecule?
Answer: > 90%

Question: And the half-life [4]?
Answer: 3.4 h

Question: For `O=C(CN1CC=CC[C@H](NC(=O)c2nccc3ccccc23)C1=O)N[C@H]1CC(=O)OC1O` (some centres undefined), which IC50 (Caspase-3) is on record?
Answer: > 10 µM

Question: What about the IC50 (THP-1) of the same molecule?
Answer: 0.586 µM

Question: And the IC50 (Caspase-1)?
Answer: 0.027 µM

Question: And the IC50 (Caspase-8)?
Answer: 2.93 µM

Question: Which IC50 (Caspase-3) does the source give for `O=C(CN1CC(CNS(=O)(=O)c2ccccc2)=CC[C@H](NC(=O)c2ccc3ccccc3c2)C1=O)N[C@H]1CC(=O)OC1O` (some centres undefined) here?
Answer: 6.81 µM

Question: What about the IC50 (THP-1) of the same molecule?
Answer: 0.326 µM

Question: And the IC50 (Caspase-1)?
Answer: 0.003 µM

Question: And the IC50 (Caspase-8)?
Answer: 0.109 µM

Question: For `O=C(CN1CC(CNC(=O)c2ccccc2)=CC[C@H](NC(=O)c2ccc3ccccc3c2)C1=O)N[C@H]1CC(=O)OC1O` (some centres undefined), which IC50 (Caspase-3) is on record?
Answer: 1.7 µM

Question: And the IC50 (THP-1)?
Answer: 0.466 µM

Question: And the IC50 (Caspase-1)?
Answer: 0.002 µM

Question: What about the IC50 (Caspase-8) of the same molecule?
Answer: 1.08 µM

Question: What does the source list for `COc1cccc(C(=O)NCC2=CC[C@H](NC(=O)c3ccc4ccccc4c3)C(=O)N(CC(=O)N[C@H]3CC(=O)OC3O)C2)c1` (some centres undefined)?
Answer: IC50 (Caspase-3): 1.08 µM; IC50 (THP-1): 0.243 µM; IC50 (Caspase-1): 0.001 µM; IC50 (Caspase-8): 0.448 µM

Question: With `O=C[C@H](CC(=O)O)NC(=O)[C@@H]1CC[C@@H]2C/C=C\C[C@H](NC(=O)c3nccc4ccccc34)C(=O)N21` as the molecule, how does the IC50 (THP-1) read?
Answer: 0.188 µM

Question: What about the IC50 (Caspase-1) of the same molecule?
Answer: 0.004 µM

Question: With `COc1ccccc1C(=O)NCC1=CC[C@H](NC(=O)c2ccc3ccccc3c2)C(=O)N(CC(=O)N[C@H]2CC(=O)OC2O)C1` (some centres undefined) as the molecule, how does the IC50 (Caspase-3) read?
Answer: 3.37 µM

Question: What about the IC50 (THP-1) of the same molecule?
Answer: 1.34 µM

Question: And the IC50 (Caspase-1)?
Answer: 0.002 µM

Question: What about the IC50 (Caspase-8) of the same molecule?
Answer: 0.887 µM

Question: With `O=C(CN1CC=CC[C@H](NC(=O)c2cccc(C(F)(F)F)c2)C1=O)N[C@H]1CC(=O)OC1O` (some centres undefined) as the molecule, how does the IC50 (Caspase-3) read?
Answer: > 10 µM

Question: What about the IC50 (THP-1) of the same molecule?
Answer: 0.554 µM

Question: And the IC50 (Caspase-1)?
Answer: 0.011 µM

Question: What about the IC50 (Caspase-8) of the same molecule?
Answer: 1.96 µM

Question: For `CCOC1OC(=O)C[C@@H]1NC(=O)[C@H](C)N1CC=CC[C@H](NC(=O)c2ccc3ccccc3c2)C1=O` (some centres undefined), which Cmax [1] is on record?
Answer: 0.72 µg/mL

Question: What about the AUC(0-inf) [2] of the same molecule?
Answer: 4.53 µg·h/mL

Question: What about the half-life [4] of the same molecule?
Answer: 5.1 h

Question: For `CCOC1OC(=O)C[C@@H]1NC(=O)CN1CC(CNC(=O)c2ccc(OC)cc2)=CC[C@H](NC(=O)c2ccc3ccccc3c2)C1=O` (some centres undefined), which Cmax [1] is on record?
Answer: 0.009 µg/mL

Question: And the AUC(0-inf) [2]?
Answer: 0.03 µg·h/mL

Question: And the half-life [4]?
Answer: 7.1 h

Question: What does the source list for `O=C(CN1CC=CC[C@H](NC(=O)c2cc3ccccc3s2)C1=O)N[C@H]1CC(=O)OC1O` (some centres undefined)?
Answer: IC50 (Caspase-3): > 10 µM; IC50 (THP-1): 0.712 µM; IC50 (Caspase-1): 0.02 µM; IC50 (Caspase-8): 1.45 µM

Question: What does the source list for `CC1=CC[C@H](NC(=O)c2ccc3ccccc3c2)C(=O)N(CC(=O)N[C@H]2CC(=O)OC2O)C1` (some centres undefined)?
Answer: IC50 (Caspase-3): > 10 µM; IC50 (THP-1): 0.153 µM; IC50 (Caspase-1): 0.019 µM; IC50 (Caspase-8): 2.69 µM

Question: What does the source list for `O=C(CN1CC=CC[C@H](NC(=O)c2ccc3ccccc3c2)C1=O)N[C@H]1CC(=O)OC1O` (some centres undefined)?
Answer: Cmax [1]: 0.264 µg/mL; IC50 (Caspase-3): > 10 µM; AUC (Rattus norvegicus [5]): 0.32 µg·h/mL; IC50 (THP-1): 0.1 µM; half-life [6]: 0.2 h; IC50 (Caspase-1): 0.014 µM; AUC (Rattus norvegicus [7]): 1.97 µg·h/mL; F (Rattus norvegicus [8]): 2%; half-life [4]: 1.3 h; IC50 (Caspase-8): 2.16 µM; Cmax [9]: 6.79 µg/mL

Question: Which IC50 (Caspase-1) does the source give for `O=C[C@H](CC(=O)O)NC(=O)[C@@H]1CCCN2C(=O)CC[C@H](NC(=O)c3nccc4ccccc34)C(=O)N12` [VRT-18858] here?
Answer: 0.004 µM

Question: Which IC50 (Caspase-1) does the source give for `O=C(CN1CC/C=C\C[C@H](NC(=O)c2nccc3ccccc23)C1=O)N[C@H]1CC(=O)OC1O` (some centres undefined) here?
Answer: 0.077 µM

Question: Which results are given for `O=C(CN1CC=CC[C@H](NC(=O)c2ccccc2)C1=O)N[C@H]1CC(=O)OC1O` (some centres undefined)?
Answer: IC50 (Caspase-3): > 10 µM; IC50 (THP-1): 1.08 µM; IC50 (Caspase-1): 0.168 µM; IC50 (Caspase-8): 4.2 µM

Question: Which IC50 (Caspase-3) does the source give for `COc1ccc(C(=O)NCC2=CC[C@H](NC(=O)c3ccc4ccccc4c3)C(=O)N(CC(=O)N[C@H]3CC(=O)OC3O)C2)cc1` (some centres undefined) here?
Answer: 1.13 µM

Question: And the IC50 (THP-1)?
Answer: 0.095 µM

Question: What about the IC50 (Caspase-1) of the same molecule?
Answer: 0.001 µM

Question: What about the IC50 (Caspase-8) of the same molecule?
Answer: 0.471 µM

Question: Which IC50 (Caspase-3) does the source give for `COc1cccc(C(=O)N[C@H]2CC=CCN(CC(=O)N[C@H]3CC(=O)OC3O)C2=O)c1` (some centres undefined) here?
Answer: > 10 µM

Question: And the IC50 (THP-1)?
Answer: 1.23 µM

Question: And the IC50 (Caspase-1)?
Answer: 0.053 µM

Question: What about the IC50 (Caspase-8) of the same molecule?
Answer: 1.23 µM

Question: What does the source list for `O=C[C@H](CC(=O)O)NC(=O)[C@@H]1COC[C@@H]2C/C=C\C[C@H](NC(=O)c3nccc4ccccc34)C(=O)N21`?
Answer: IC50 (THP-1): 0.182 µM; IC50 (Caspase-1): 0.003 µM

Question: Which IC50 (Caspase-3) does the source give for `O=C(CN1CC=CC[C@H](NC(=O)c2cccc(Cl)c2)C1=O)N[C@H]1CC(=O)OC1O` (some centres undefined) here?
Answer: > 10 µM

Question: What about the IC50 (THP-1) of the same molecule?
Answer: 0.383 µM

Question: What about the IC50 (Caspase-1) of the same molecule?
Answer: 0.029 µM

Question: What about the IC50 (Caspase-8) of the same molecule?
Answer: 1.18 µM

Question: Which IC50 (Caspase-3) does the source give for `C[C@@H](C(=O)N[C@H]1CC(=O)OC1O)N1CC=CC[C@H](NC(=O)c2ccc3ccccc3c2)C1=O` (some centres undefined) here?
Answer: 7.51 µM

Question: And the IC50 (THP-1)?
Answer: 0.036 µM

Question: And the IC50 (Caspase-1)?
Answer: 0.001 µM

Question: And the IC50 (Caspase-8)?
Answer: 0.162 µM

Question: For `O=C(CN1CC(CSCc2ccccc2)=CC[C@H](NC(=O)c2ccc3ccccc3c2)C1=O)N[C@H]1CC(=O)OC1O` (some centres undefined), which IC50 (Caspase-3) is on record?
Answer: > 10 µM

Question: What about the IC50 (THP-1) of the same molecule?
Answer: 1.28 µM

Question: And the IC50 (Caspase-1)?
Answer: 0.008 µM

Question: And the IC50 (Caspase-8)?
Answer: 1.61 µM

Question: With `O=C(CN1CC(CO)=CC[C@H](NC(=O)c2ccc3ccccc3c2)C1=O)N[C@H]1CC(=O)OC1O` (some centres undefined) as the molecule, how does the IC50 (Caspase-3) read?
Answer: > 10 µM

Question: And the IC50 (THP-1)?
Answer: 0.543 µM

Question: What about the IC50 (Caspase-1) of the same molecule?
Answer: 0.022 µM

Question: What about the IC50 (Caspase-8) of the same molecule?
Answer: 2.11 µM

Question: For `O=C(CN1CC=CC[C@H](NC(=O)c2cc(Cl)ccc2Cl)C1=O)N[C@H]1CC(=O)OC1O` (some centres undefined), which IC50 (Caspase-3) is on record?
Answer: > 10 µM

Question: And the IC50 (THP-1)?
Answer: 0.071 µM

Question: And the IC50 (Caspase-1)?
Answer: 0.015 µM

Question: And the IC50 (Caspase-8)?
Answer: 0.554 µM

Source: ChEMBL document CHEMBL1146315, “Synthesis and evaluation of unsaturated caprolactams as interleukin-1beta converting enzyme (ICE) inhibitors” (Bioorg Med Chem, 2007)
